Assay: xn = mol fraction of the nth substance listed
Conditions: 100 kPa, Liquid; for electrical conductivity: Direct current cell with electrodes; for mass density: Vibrating tube method

[Cl][Fe]([Cl])[Cl] [ferric chloride] + CCCCn1cc[n+](C)c1.[Cl-]
Conditions	electrical conductivity [S/m]	mass density [kg/m3]
318.15 K, x1 = 0.3704	–	1260.6
318.15 K, x1 = 0.4	–	1279.6
318.15 K, x1 = 0.4348	–	1302.4
318.15 K, x1 = 0.4545	–	1316.7
318.15 K, x1 = 0.4762	1.233	1331.6
318.15 K, x1 = 0.5	1.535	1349
318.15 K, x1 = 0.5238	1.44	1370.4
318.15 K, x1 = 0.5652	1.325	1411.2
318.15 K, x1 = 0.6	1.26	1445.3
323.15 K, x1 = 0.3704	0.483	1256.7
323.15 K, x1 = 0.4	0.666	1275.7
323.15 K, x1 = 0.4348	0.961	1298.5
323.15 K, x1 = 0.4545	1.15	1312.6
323.15 K, x1 = 0.4762	1.4	1327.5
323.15 K, x1 = 0.5	1.726	1344.7
323.15 K, x1 = 0.5238	1.623	1366.2
323.15 K, x1 = 0.5652	1.5	1406.7
323.15 K, x1 = 0.6	1.423	1440.7
328.15 K, x1 = 0.3704	0.581	1253
328.15 K, x1 = 0.4	0.783	1271.8
328.15 K, x1 = 0.4348	1.108	1294.6
328.15 K, x1 = 0.4545	1.311	1308.7
328.15 K, x1 = 0.4762	1.58	1323.3
328.15 K, x1 = 0.5	1.929	1340.7
328.15 K, x1 = 0.5238	1.812	1361.9
328.15 K, x1 = 0.5652	1.67	1402.4
328.15 K, x1 = 0.6	1.59	1436.3
333.15 K, x1 = 0.3704	0.691	1249.2
333.15 K, x1 = 0.4	0.913	1267.8
333.15 K, x1 = 0.4348	1.27	1290.7
333.15 K, x1 = 0.4545	1.48	1304.6
333.15 K, x1 = 0.4762	1.76	1319.5
333.15 K, x1 = 0.5	2.14	1336.5
333.15 K, x1 = 0.5238	2.014	1357.7
333.15 K, x1 = 0.5652	1.85	1398
333.15 K, x1 = 0.6	1.76	1431.8
338.15 K, x1 = 0.3704	0.814	1245.5
338.15 K, x1 = 0.4	1.05	1263.9
338.15 K, x1 = 0.4348	1.436	1286.8
338.15 K, x1 = 0.4545	1.66	1300.6
338.15 K, x1 = 0.4762	1.96	1315.5
338.15 K, x1 = 0.5	2.35	1332.3
338.15 K, x1 = 0.5238	2.219	1353.2
338.15 K, x1 = 0.5652	2.042	1393.7
338.15 K, x1 = 0.6	1.936	1427.3
343.15 K, x1 = 0.3704	0.949	1241
343.15 K, x1 = 0.4	1.208	1260.3
343.15 K, x1 = 0.4348	1.614	1282.6
343.15 K, x1 = 0.4545	1.85	1296.7
343.15 K, x1 = 0.4762	2.16	1311.3
343.15 K, x1 = 0.5	2.58	1328.3
343.15 K, x1 = 0.5238	2.435	1349.2
343.15 K, x1 = 0.5652	2.24	1389.3
343.15 K, x1 = 0.6	2.12	1422.9

Reference: the NIST ThermoML archive (doi:10.1016/j.jct.2016.01.002)
